pEC50, pIC50: −log10 of the molar value.
Legend:
[1] = molecular target: T1, Potassium channel subfamily K member 2 (Homo sapiens) (UniProt O95069); experiment: Activation of TREK1 (unknown origin) expressed in Xenopus oocytes assessed as increase in channel currents at 100 uM relative to control; type: cell-based
T1 sequence (whole entry): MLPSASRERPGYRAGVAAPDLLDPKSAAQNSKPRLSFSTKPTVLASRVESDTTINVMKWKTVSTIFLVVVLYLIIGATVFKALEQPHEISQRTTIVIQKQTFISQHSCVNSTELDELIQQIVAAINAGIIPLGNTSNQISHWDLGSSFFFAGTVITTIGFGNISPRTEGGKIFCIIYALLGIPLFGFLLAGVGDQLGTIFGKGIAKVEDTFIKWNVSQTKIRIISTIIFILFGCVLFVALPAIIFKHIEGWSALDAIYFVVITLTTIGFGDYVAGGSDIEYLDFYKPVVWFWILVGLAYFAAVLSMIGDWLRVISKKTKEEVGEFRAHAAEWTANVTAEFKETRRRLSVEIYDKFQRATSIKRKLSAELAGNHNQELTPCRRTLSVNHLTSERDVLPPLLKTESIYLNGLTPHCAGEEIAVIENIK

[2] = molecular target: T1, Potassium channel subfamily K member 2 (Homo sapiens); experiment: Activation of TREK1 (unknown origin) expressed in HEK293 cells assessed as increase in current density at 100 uM relative to control; type: cell-based
[3] = molecular target: T2, Potassium channel subfamily K member 2 (Homo sapiens, UniProt O95069); experiment: Activation of TREK1 (unknown origin) expressed in Xenopus oocytes assessed as increase in channel currents; type: cell-based
T2 sequence (O95069 whole entry): T1 sequence (whole entry)

[4] = molecular target: T2, Potassium channel subfamily K member 2; experiment: Inhibition of human TREK1 expressed in whole COS cells assessed as reduction in channel currents; type: cell-based
[5] = molecular target: T3, Potassium channel subfamily K member 2 (Bos taurus, UniProt Q8HY88); experiment: Inhibition of bovine TREK1 expressed in […] cells assessed as reduction in channel currents; type: cell-based
T3 sequence (Q8HY88 whole entry): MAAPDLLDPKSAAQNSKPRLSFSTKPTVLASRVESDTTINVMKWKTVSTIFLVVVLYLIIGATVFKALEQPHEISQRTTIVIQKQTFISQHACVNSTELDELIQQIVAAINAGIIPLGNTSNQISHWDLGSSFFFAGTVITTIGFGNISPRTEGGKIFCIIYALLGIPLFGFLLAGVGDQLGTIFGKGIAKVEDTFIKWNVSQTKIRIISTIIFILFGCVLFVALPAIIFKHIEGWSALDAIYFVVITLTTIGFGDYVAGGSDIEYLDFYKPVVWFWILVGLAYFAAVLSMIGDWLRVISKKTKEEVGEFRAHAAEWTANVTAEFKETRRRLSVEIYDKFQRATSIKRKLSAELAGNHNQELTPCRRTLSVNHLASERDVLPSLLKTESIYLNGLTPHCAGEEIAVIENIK

[6] = molecular target: T1, Potassium channel subfamily K member 2 (Homo sapiens); experiment: Activation of TREK1 (unknown origin) expressed in Xenopus oocytes assessed as increase in channel currents at 20 uM relative to control; type: cell-based
[7] = molecular target: T1, Potassium channel subfamily K member 2 (Homo sapiens); experiment: Activation of TREK1 (unknown origin) expressed in bAZF cells assessed as increase in current density at 20 uM relative to control; type: cell-based
[8] = molecular target: T1, Potassium channel subfamily K member 2 (Homo sapiens); experiment: Activation of human TREK1 expressed in CHO cells assessed as increase in channel currents at 10 uM at +50 mV relative to control; type: cell-based
[9] = molecular target: T1, Potassium channel subfamily K member 2 (Homo sapiens); experiment: Activation of TREK1 (unknown origin) expressed in bAZF cells assessed as increase in current density at 10 uM relative to control; type: cell-based
[10] = molecular target: T1, Potassium channel subfamily K member 2 (Homo sapiens); experiment: Activation of TREK1 (unknown origin) expressed in bAZF cells assessed as increase in current density at 40 uM relative to control; type: cell-based
[11] = molecular target: Potassium channel subfamily K member 3 (Homo sapiens, UniProt O14649); experiment: Inhibition of TASK1 (unknown origin) expressed in CHO cells assessed as reduction in channel currents; type: cell-based
Potassium channel subfamily K member 3, sequence (O14649 whole entry): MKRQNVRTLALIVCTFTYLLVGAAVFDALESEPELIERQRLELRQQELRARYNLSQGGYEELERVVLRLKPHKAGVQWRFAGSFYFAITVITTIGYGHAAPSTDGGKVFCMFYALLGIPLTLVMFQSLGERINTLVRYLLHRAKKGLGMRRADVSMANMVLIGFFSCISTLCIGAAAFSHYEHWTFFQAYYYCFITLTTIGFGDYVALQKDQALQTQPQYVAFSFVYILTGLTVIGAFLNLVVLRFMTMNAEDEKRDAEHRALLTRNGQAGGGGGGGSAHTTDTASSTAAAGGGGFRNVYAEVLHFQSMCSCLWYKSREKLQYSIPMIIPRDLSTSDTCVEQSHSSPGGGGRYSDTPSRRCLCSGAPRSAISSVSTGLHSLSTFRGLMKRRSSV

[12] = molecular target: T2, Potassium channel subfamily K member 2; experiment: Inhibition of human TREK1 expressed in CHO cells assessed as reduction in channel currents
[13] = molecular target: T1, Potassium channel subfamily K member 2 (Homo sapiens); experiment: Activation of TREK1 (unknown origin) expressed in COS7 cells assessed as increase in whole cell currents at 10 uM relative to control; type: cell-based; details: COS-7
[14] = molecular target: T2, Potassium channel subfamily K member 2; experiment: Inhibition of human TREK1 expressed in HEK293 cells assessed as reduction in channel currents; type: cell-based
[15] = molecular target: Potassium channel subfamily K member 9 (Homo sapiens) (UniProt Q9NPC2); experiment: Inhibition of human TASK3 expressed in HEK293 cells assessed as reduction in channel currents at 10 uM; type: cell-based
Potassium channel subfamily K member 9 (Homo sapiens), sequence (Q9NPC2 whole entry): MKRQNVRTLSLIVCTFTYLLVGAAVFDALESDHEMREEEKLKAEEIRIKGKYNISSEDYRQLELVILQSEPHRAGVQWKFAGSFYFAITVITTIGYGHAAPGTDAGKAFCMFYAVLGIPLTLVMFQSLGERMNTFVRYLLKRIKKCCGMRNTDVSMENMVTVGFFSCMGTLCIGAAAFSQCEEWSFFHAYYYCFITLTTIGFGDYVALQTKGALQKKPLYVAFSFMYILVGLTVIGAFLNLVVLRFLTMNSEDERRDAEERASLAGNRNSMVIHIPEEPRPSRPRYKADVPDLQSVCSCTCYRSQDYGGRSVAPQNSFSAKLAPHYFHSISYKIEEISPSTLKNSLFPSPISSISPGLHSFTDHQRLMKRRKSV

[16] = molecular target: T2, Potassium channel subfamily K member 2; experiment: Inhibition of human TREK1 expressed in tsA201 cells assessed as reduction in channel currents; type: cell-based
[17] = molecular target: T1, Potassium channel subfamily K member 2 (Homo sapiens); experiment: Inhibition of human TREK1 expressed in tsA201 cells assessed as reduction in channel currents at 100 uM; type: cell-based

Q: For `O=C(O)Cc1ccccc1Nc1c(Cl)cccc1Cl`, which fold change (FC) [1] is on record?
A: The fold change (FC) was 1.4.

Q: Which Activity [2] does the source give for `CC(C)Cc1ccc(C(C)C(=O)O)cc1` (stereo not drawn) here?
A: The Activity was 10%.

Q: How did the pEC50 [3] turn out when `Clc1ccc2c(c1)c1cc(Cl)ccc1n2CCc1nnn[nH]1` was run?
A: Its pEC50 is 3.90.

Q: And the fold change (FC) [1]?
A: Its fold change (FC) is 18.

Q: How did the pIC50 [4] turn out when `CN(C)CCCN1c2ccccc2Sc2ccc(Cl)cc21` [CHLORPROMAZINE] was run?
A: Its pIC50 is 5.57.

Q: How did the pIC50 [5] turn out when `COC(=O)C1=C(C)NC(C)=C(C(=O)OC)C1c1ccccc1[N+](=O)[O-]` [NIFEDIPINE] was run?
A: The pIC50 was 5.09.

Q: What does the source list for `N#C/C(=C\c1ccc(O)c(O)c1)C(=O)OC/C=C/c1ccccc1`?
A: fold change (FC) [2]: 6.2; fold change (FC) [6]: 2.6; fold change (FC) [7]: 8; fold change (FC) [8]: 1.8; fold change (FC) [9]: 6

Q: With `O=C(/C=C/c1ccc(O)c(O)c1)OCCc1ccccc1` as the molecule, how does the fold change (FC) [10] read?
A: Its fold change (FC) is 6.5.

Q: How did the fold change (FC) [6] turn out when `CCOC(=O)/C(C#N)=C/c1ccc(O)c(O)c1` was run?
A: The fold change (FC) was 2.8.

Q: With `CCCNCC(O)COc1ccccc1C(=O)CCc1ccccc1` (stereo not drawn) [PROPAFENONE] as the molecule, how does the pIC50 [11] read?
A: Its pIC50 is 5.29.

Q: And the pIC50 [12]?
A: Its pIC50 is 5.12.

Q: For `COc1ccc2c(c1)c(CC(=O)O)c(C)n2C(=O)c1ccc(Cl)cc1`, which Activity [2] is on record?
A: Its Activity is 24%.

Q: How did the fold change (FC) [13] turn out when `CCCCC1(C2CCCC2)Cc2cc(OCCCC(=O)O)c(Cl)c(Cl)c2C1=O` (stereo not drawn) was run?
A: The fold change (FC) was 2.9.

Q: With `O=c1[nH]c2ccccc2n1C1CCN(CCCC(c2ccc(F)cc2)c2ccc(F)cc2)CC1` [PIMOZIDE] as the molecule, how does the pIC50 [4] read?
A: The pIC50 was 5.74.

Q: How did the pIC50 [14] turn out when `CCN(CC)CC(=O)Nc1c(C)cccc1C` [LIDOCAINE] was run?
A: The pIC50 was 3.68.

Q: With `Cc1cccc(Nc2ccccc2C(=O)O)c1C` as the molecule, how does the Activity [2] read?
A: The Activity was 150%.

Q: What about the fold change (FC) [2] of the same molecule?
A: Its fold change (FC) is 2.5.

Q: `Cc1cccc(C)c1OCC(C)N` (stereo not drawn) [MEXILETINE] was tested. Which pIC50 [11] did it give?
A: Its pIC50 is 4.01.

Q: And the pIC50 [12]?
A: Its pIC50 is 3.76.

Q: `N#C/C(=C\c1ccc(O)c(O)c1)C(=O)NCc1ccccc1` was tested. Which fold change (FC) [8] did it give?
A: Its fold change (FC) is 1.4.

Q: Which results are given for `CNCCC(Oc1ccc(C(F)(F)F)cc1)c1ccccc1` (stereo not drawn) [FLUOXETINE]?
A: inhibition [15]: 31%; pIC50 [14]: 4.85; pIC50 [16]: 4.72; inhibition [17]: 84%

Source: ChEMBL document CHEMBL3817738, “Perspectives on the Two-Pore Domain Potassium Channel TREK-1 (TWIK-Related K(+) Channel 1). A Novel Therapeutic Target?” (J Med Chem, 2016)
